ChEMBL document CHEMBL1139443, “Antitumor agents. Part 230: C4'-esters of GL-331 as cytotoxic agents and DNA topoisomerase II inhibitors” (Bioorg Med Chem Lett, 2004)
pEC50: −log10 of the molar value.

tested on: KB; assay: Compound was evaluated for cytotoxicity against KB-7d cells at 10 uM concentration; NMD = not markedly different from control.; format: functional, cell-based; details: Homo sapiens

SMILES | Cytotoxicity
COc1cc([C@@H]2c3cc4c(cc3[C@@H](O[C@@H]3O[C@@H]5CO[C@@H](C)O[C@H]5[C@H](O)[C@H]3O)[C@H]3COC(=O)[C@H]23)OCO4)cc(OC)c1O [ETOPOSIDE] | Not Markedly Different

tested on: KB; assay: Effective dose required for inhibition of KB-7d cell replication after 3 days of continuous treatment; format: functional; details: Homo sapiens, 72 h, read-out: ED50 (the source's name)

SMILES | pEC50
COc1cc([C@@H]2c3cc4c(cc3[C@@H](Nc3ccc([N+](=O)[O-])cc3)[C@H]3COC(=O)[C@H]23)OCO4)cc(OC)c1O | 5.82
COc1cc([C@@H]2c3cc4c(cc3[C@@H](Nc3ccc([N+](=O)[O-])cc3)[C@H]3COC(=O)[C@H]23)OCO4)cc(OC)c1OC(=O)CCl | 5.64
COc1cc([C@@H]2c3cc4c(cc3[C@@H](Nc3ccc([N+](=O)[O-])cc3)[C@H]3COC(=O)[C@H]23)OCO4)cc(OC)c1OC(=O)C(F)(F)F | 5.82
COc1cc([C@@H]2c3cc4c(cc3[C@@H](Nc3ccc([N+](=O)[O-])cc3)[C@H]3COC(=O)[C@H]23)OCO4)cc(OC)c1OC(C)=O | 5.54
COc1cc([C@@H]2c3cc4c(cc3[C@@H](O[C@@H]3O[C@@H]5CO[C@@H](C)O[C@H]5[C@H](O)[C@H]3O)[C@H]3COC(=O)[C@H]23)OCO4)cc(OC)c1O [ETOPOSIDE] | 4.96

tested on: KB; assay: Compound was evaluated for cytotoxicity against KB cells at 10 uM concentration; format: functional; details: Homo sapiens

SMILES | cytotoxicity at 10 µM
COc1cc([C@@H]2c3cc4c(cc3[C@@H](Nc3ccc([N+](=O)[O-])cc3)[C@H]3COC(=O)[C@H]23)OCO4)cc(OC)c1O | 66%
COc1cc([C@@H]2c3cc4c(cc3[C@@H](Nc3ccc([N+](=O)[O-])cc3)[C@H]3COC(=O)[C@H]23)OCO4)cc(OC)c1OC(=O)CCl | 43%
COc1cc([C@@H]2c3cc4c(cc3[C@@H](Nc3ccc([N+](=O)[O-])cc3)[C@H]3COC(=O)[C@H]23)OCO4)cc(OC)c1OC(=O)C(F)(F)F | 62%
COc1cc([C@@H]2c3cc4c(cc3[C@@H](Nc3ccc([N+](=O)[O-])cc3)[C@H]3COC(=O)[C@H]23)OCO4)cc(OC)c1OC(C)=O | 28%
COc1cc([C@@H]2c3cc4c(cc3[C@@H](O[C@@H]3O[C@@H]5CO[C@@H](C)O[C@H]5[C@H](O)[C@H]3O)[C@H]3COC(=O)[C@H]23)OCO4)cc(OC)c1O [ETOPOSIDE] | 52%

tested on: not listed separately; assay: Lethal dose against KB cells when treated for 30 min; format: toxicity, cell-based; details: human, read-out: LD50

SMILES | CC50 at 0.5 h
COc1cc([C@@H]2c3cc4c(cc3[C@@H](Nc3ccc([N+](=O)[O-])cc3)[C@H]3COC(=O)[C@H]23)OCO4)cc(OC)c1O | < 10 µM
COc1cc([C@@H]2c3cc4c(cc3[C@@H](Nc3ccc([N+](=O)[O-])cc3)[C@H]3COC(=O)[C@H]23)OCO4)cc(OC)c1OC(=O)CCl | > 10 µM
COc1cc([C@@H]2c3cc4c(cc3[C@@H](Nc3ccc([N+](=O)[O-])cc3)[C@H]3COC(=O)[C@H]23)OCO4)cc(OC)c1OC(=O)C(F)(F)F | < 10 µM
COc1cc([C@@H]2c3cc4c(cc3[C@@H](Nc3ccc([N+](=O)[O-])cc3)[C@H]3COC(=O)[C@H]23)OCO4)cc(OC)c1OC(C)=O | > 20 µM
COc1cc([C@@H]2c3cc4c(cc3[C@@H](O[C@@H]3O[C@@H]5CO[C@@H](C)O[C@H]5[C@H](O)[C@H]3O)[C@H]3COC(=O)[C@H]23)OCO4)cc(OC)c1O [ETOPOSIDE] | 50 µM

tested on: not listed separately; assay: Lethal dose against KB-7d cells when treated for 30 min; format: toxicity, cell-based; details: human, read-out: LD50

SMILES | CC50 at 0.5 h
COc1cc([C@@H]2c3cc4c(cc3[C@@H](Nc3ccc([N+](=O)[O-])cc3)[C@H]3COC(=O)[C@H]23)OCO4)cc(OC)c1O | < 10 µM
COc1cc([C@@H]2c3cc4c(cc3[C@@H](Nc3ccc([N+](=O)[O-])cc3)[C@H]3COC(=O)[C@H]23)OCO4)cc(OC)c1OC(=O)CCl | > 10 µM
COc1cc([C@@H]2c3cc4c(cc3[C@@H](Nc3ccc([N+](=O)[O-])cc3)[C@H]3COC(=O)[C@H]23)OCO4)cc(OC)c1OC(=O)C(F)(F)F | < 10 µM
COc1cc([C@@H]2c3cc4c(cc3[C@@H](Nc3ccc([N+](=O)[O-])cc3)[C@H]3COC(=O)[C@H]23)OCO4)cc(OC)c1OC(C)=O | < 10 µM

tested on: KB; assay: Compound was evaluated for cytotoxicity against KB-7d cells at 10 uM concentration; format: functional; details: Homo sapiens

SMILES | cytotoxicity at 10 µM
COc1cc([C@@H]2c3cc4c(cc3[C@@H](Nc3ccc([N+](=O)[O-])cc3)[C@H]3COC(=O)[C@H]23)OCO4)cc(OC)c1O | 94%
COc1cc([C@@H]2c3cc4c(cc3[C@@H](Nc3ccc([N+](=O)[O-])cc3)[C@H]3COC(=O)[C@H]23)OCO4)cc(OC)c1OC(=O)CCl | 46%
COc1cc([C@@H]2c3cc4c(cc3[C@@H](Nc3ccc([N+](=O)[O-])cc3)[C@H]3COC(=O)[C@H]23)OCO4)cc(OC)c1OC(=O)C(F)(F)F | 90%
COc1cc([C@@H]2c3cc4c(cc3[C@@H](Nc3ccc([N+](=O)[O-])cc3)[C@H]3COC(=O)[C@H]23)OCO4)cc(OC)c1OC(C)=O | 60%

tested on: KB; assay: Lethal dose against KB-7d cells when treated for 30 min; NMD = not markedly different from control.; format: toxicity, cell-based; details: human, 0.5 h

SMILES | LD50
COc1cc([C@@H]2c3cc4c(cc3[C@@H](O[C@@H]3O[C@@H]5CO[C@@H](C)O[C@H]5[C@H](O)[C@H]3O)[C@H]3COC(=O)[C@H]23)OCO4)cc(OC)c1O [ETOPOSIDE] | Not Markedly Different
